# Measured values: publication PMC6764326, “The Trials and Tribulations of Structure Assisted Design of KCa Channel Activators” (Frontiers in Pharmacology, 2019)
# How the values were obtained:
# [1] = target: T1, KCa3.1 (Homo sapiens, UniProt O15554+P0DP23); assay: QPatch automated whole-cell patch-clamp screen, 10 µM activator normalized to 10 µM SKA-31; type: cell-based; conditions: for Whole-cell KCa3.1 response elicited by 10 µM of activator normalized to 10 µM SKA-31 (described in words): 250 nM free internal Ca2+, HEK cells stably expressing channel; for Selectivity between KCa3.1 and KCa2.2 in the 10 µM screen: KCa3.1 versus KCa2.2, 250 nM free Ca2+
# T1 construct: expressed in transfected cells
# Experimental: (§1) All experiments were performed in either the inside-out or the whole-cell configuration of the patch-clamp technique on either transiently transfected CHO cells or Human Embryonic Kidney (HEK) cell lines stably expressing hKCa3.1 or hKCa2.2 ([Sankaranarayanan et al., 2009]). All cells were cultured in Dulbecco’s modified Eagle’s medium supplemented with 10% fetal calf serum. Wild-type (WT) and mutant hKCa3.1 channel constructs were transfected using FuGENE 6 transfection reagent (Promega, Madison, WI) in OptiMEM reduced-serum medium (Life Technologies, Benicia, CA) for manual patch-clamp experiments or via electroporation (Nucleofector 2b and Lonza Amaxa Cell Line Nucleofector Kit T) according to the manufacturer’s instructions for automated electrophysiology.
# (§2) The procedure for performing automated whole-cell KCa channel recordings on a QPatch-16 automated electrophysiology platform (Sophion Biosciences) was previously described in detail by our laboratory ([Jenkins et al., 2013]). For the current study we used the solutions described above with disposable 16-channel planar patch chip plates (QPlates; patch hole diameter […], resistance 2.00–0.02MΩ, Sophion Biosciences, Woburn, MA). Cell positioning and sealing parameters were set as follows: positioning pressure -70 mbar, resistance increase for success 750%, minimum seal resistance 0.1 GΩ, holding potential -0 mV, holding pressure -20 mbar. To avoid rejection of cells with large KCa3.1 currents, the minimum seal resistance for whole-cell requirement was lowered to 0.001 GΩ. Access was obtained with the following sequence: 1) suction pulses in 29 mbar increments from -250 mbar to -453 mbar; 2) a suction ramp of an amplitude of -450 mbar; 3) -400 mV voltage zaps of 1 ms duration. Following establishment of the whole-cell configuration, cells were held at -80 mV and KCa currents elicited by a voltage protocol that held at -80 mV for 20 ms, stepped to -120 mV for 20 ms, ramped from -120 to + 40 mV in 200 ms, and then stepped back to -120 mV for 20 ms. This pulse protocol was applied every 10 s. KCa activator dilutions were prepared freshly (within 5 min of the initiation of the QPatch) with Ringer’s solution from 10 mM stock solutions in dry DMSO. Final DMSO concentrations never exceeded 1%. Glass vial inserts (to avoid adsorption) were filled with 400 µL of compound solution and placed into the insert base plate for use in the QPatch assay. Exemplary QPatch raw current traces and plots of slope conductance versus time are shown in Supplementary Figure 3 . For each compound we typically used 12 consecutive liquid periods Break-in, 3 saline additions to stabilize the current, 2 additions of test compound at 10 µM, 2 saline washes, 2 additions of SKA-31 at 10 µM, followed by 2 more saline washes. In each liquid period 10 pulse protocols were run.
# (§3) The newly synthesized compounds were tested by automated whole-cell patch-clamp for their ability to activate KCa2.2 and KCa3.1 channels stably expressed in HEK cells. […] A promising compound would ideally do both. […] We started by comparing the effect of the SKA-74 derivatives to SKA-31 ( Figure 4A ).
# (§4) Figure 4 Whole-cell KCa3.1 and KCa2.2 responses elicited by 10 µM of activator and normalized to 10 µM of the mixed activator SKA-31. Experiments were performed by automated electrophysiology with 250 nM of free internal Ca^2+. In each experiment the new activator was tested first, washed out with 2 saline additions, and then SKA-31 was applied as positive control for normalization of the response. (A) Screening of SKA-74 derivatives. (B) Screening of SKA-75 and SKA-76 derivatives. The bar graphs show means ± SD of the slope conductance measured between −85 and −65 mV (n = 2–7 cells). Chemical structures are shown below the bar graphs.
# (§5) Figure 5 Whole-cell KCa3.1 and KCa2.2 responses elicited by 10 µM of activator and normalized to 10 µM of the mixed activator SKA-31. […]
# [2] = target: T2, KCa2.2 (Homo sapiens, UniProt P0DP23+Q9H2S1); assay: as above; type: cell-based; conditions: 250 nM free internal Ca2+, HEK cells stably expressing channel
# T2 construct: expressed in transfected cells
# Experimental: as §1, §2, §3, §4, §5
Compound,Whole-cell KCa3.1 response elicited by 10 µM of activator normalized to 10 µM SKA-31 (described in words) [1],Whole-cell KCa2.2 response elicited by 10 µM of activator normalized to 10 µM SKA-31 (described in words) [2],Selectivity between KCa3.1 and KCa2.2 in the 10 µM screen [1],melting point [°C]
"2-Aminonaphtho[1,2-d]oxazole-5-sulfonic acid [SKA-128]",drastically reduced potency,drastically reduced potency,–,–
"5,6-Dinitronaphtho[1,2-d]thiazol-2-amine [SKA-218]",–,–,preserved the selectivity for KCa3.1,–
"Cc1nc2c(cc(Cl)c3ccccc32)s1 [SKA-130, 5-Chloro-2-methylnaphtho[1,2-d]thiazole]",–,decreased activity,preserved selectivity for KCa3.1,–
"Cc1nc2c(cc(Br)c3ccccc32)s1 [SKA-132, 5-Bromo-2-methylnaphtho[1,2-d]thiazole]",–,decreased activity,preserved selectivity for KCa3.1,–
"c1ccc2c(c1)ccc1sc(NC3CCCCC3)nc12 [SKA-165, N-Cyclohexylnaphtho[1,2-d]thiazol-2-amine]",completely eliminated activity,completely eliminated activity,–,–
"Cc1nc2c(ccc3c(N)cccc32)s1 [SKA-172, 2-Methylnaphtho[1,2-d]thiazol-6-amine]",–,–,preserved the selectivity for KCa3.1,–
"Cc1nc2c(ccc3cccc(N)c32)s1 [SKA-178, 2-Methylnaphtho[1,2-d]thiazol-9-amine]",–,–,preserved the selectivity for KCa3.1,87 to 88
"Cc1ccc(-c2csc(N)n2)c2ccccc12 [SKA-190, 4-(4-Methylnaphthalen-1-yl)thiazol-2-amine]",somewhat increased KCa channel activating potency,somewhat increased KCa channel activating potency,–,–
"CNc1nc2c(cc(C)c3ccccc32)s1 [SKA-204, N,5-Dimethylnaphtho[1,2-d]thiazol-2-amine]",–,–,–,172 to 173
"Cc1nc2c(ccc3cccc([N+](=O)[O-])c32)s1 [SKA-216, 2-Methyl-9-nitronaphtho[1,2-d]thiazole]",–,–,preserved the selectivity for KCa3.1,151 to 152
"Nc1nc(-c2ccc3ccccc3c2)c(Br)s1 [SKA-220, 5-Bromo-4-(naphthalen-2-yl)thiazol-2-amine]",somewhat increased KCa channel activating potency,somewhat increased KCa channel activating potency,–,–
"Nc1nc2c(cc(-n3ccc(C(F)(F)F)n3)c3ccccc32)s1 [SKA-341, 5-(3-(Trifluoromethyl)-1H-pyrazol-1-yl)naphtho[1,2-d]thiazol-2-amine]",–,–,–,206 to 207
"Cc1cn(-c2cc3sc(N)nc3c3ccccc23)cn1 [SKA-343, 5-(4-Methyl-1H-imidazol-1-yl)naphtho[1,2-d]thiazol-2-amine]",–,–,–,269 to 271
"Cc1nccn1-c1cc2sc(N)nc2c2ccccc12 [SKA-344, 5-(2-Methyl-1H-imidazol-1-yl)naphtho[1,2-d]thiazol-2-amine]",–,–,–,264 to 265

# More lines, now with the values ahead:
Whole-cell KCa3.1 response elicited by 10 µM of activator normalized to 10 µM SKA-31 (described in words) [1],Whole-cell KCa2.2 response elicited by 10 µM of activator normalized to 10 µM SKA-31 (described in words) [2],Selectivity between KCa3.1 and KCa2.2 in the 10 µM screen [1],melting point [°C],Compound
–,–,–,247 to 248,"Nc1nc2cc3ccccc3cc2o1 [SKA-134, Naphtho[2,3-d]oxazol-2-amine]"
completely devoid of activity,completely devoid of activity,–,–,"Nc1nc(-c2ccc(-c3ccccc3)cc2)cs1 [SKA-232, 4-Biphenyl-4-yl-thiazol-2-ylamine]"
completely devoid of activity,completely devoid of activity,–,–,"Nc1ncc(-c2ccc(-c3ccc(-c4cnc(N)s4)cc3)cc2)s1 [SKA-255, Bis-4,4’-(2-amino-4-thiazolyl)biphenyl]"
roughly as potent,–,as KCa3.1 selective as SKA-111,144 to 145,"CCc1cc2sc(N)nc2c2ccccc12 [SKA-306, 5-Ethylnaphtho[1,2-d]thiazol-2-amine]"
roughly as potent,–,as KCa3.1 selective as SKA-111,147 to 150,"CCCc1cc2sc(N)nc2c2ccccc12 [SKA-307, 5-Propylnaphtho[1,2-d]thiazol-2-amine]"
roughly as potent,–,as KCa3.1 selective as SKA-111,179 to 181,"CC(C)c1cc2sc(N)nc2c2ccccc12 [SKA-308, 5-Isopropylnaphtho[1,2-d]thiazol-2-amine]"
–,–,–,177 to 178,"Nc1nc2c(cc(-c3ccccc3)c3ccccc32)s1 [SKA-326, 5-Phenylnaphtho[1,2-d]thiazol-2-amine]"
roughly as potent,–,as KCa3.1 selective as SKA-111,171 to 174,"CN(C)c1cc2sc(N)nc2c2ccccc12 [SKA-331, N^5,N^5-Dimethylnaphtho[1,2-d]thiazole-2,5-diamine]"
–,–,–,272 to 275,"Nc1nc2c(cc(-n3ccnc3)c3ccccc32)s1 [SKA-334, 5-(1H-Imidazol-1-yl)naphtho[1,2-d]thiazol-2-amine]"
–,–,–,226 to 227,"Nc1nc2c(cc(-n3cccn3)c3ccccc32)s1 [SKA-335, 5-(1H-Pyrazol-1-yl)naphtho[1,2-d]thiazol-2-amine]"
–,–,–,208,"Nc1nc2c(cc(-n3ccnn3)c3ccccc32)s1 [SKA-339, 5-(1H-1,2,3-Triazol-1-yl)naphtho[1,2-d]thiazol-2-amine]"
–,–,–,189 to 190,"Cc1ccn(-c2cc3sc(N)nc3c3ccccc23)n1 [SKA-340, 5-(3-Methyl-1H-pyrazol-1-yl)naphtho[1,2-d]thiazol-2-amine]"
–,–,–,249,"Cc1cnn(-c2cc3sc(N)nc3c3ccccc23)c1 [SKA-345, 5-(4-Methyl-1H-pyrazol-1-yl)naphtho[1,2-d]thiazol-2-amine]"
–,–,–,273,"Nc1nc2c(cc(-n3cncn3)c3ccccc32)s1 [SKA-347, 5-(1H-1,2,4-Triazol-1-yl)naphtho[1,2-d]thiazol-2-amine]"
